# Laboratory results as given in patent publication US10314809B2, “Application of derivative of clostridium ghonii” (SHANDONG XINCHUANG BIOTECHNOLOGY CO., LTD., priority 2014, dated 2019).
# Tested on: non-small cell lung carcinoma A549 cells
# Test: Example 2: in-vivo test of spores combined with chemotherapy medicines in A549 tumor-bearing nude mice
# Set-up: species or system Balb/c-nu/nu nude mice
# Method: The non-small cell lung carcinoma A549 cells were injected into the subcutaneous positions at femoral lateral parts of right backs of female Balb/c-nu/nu nude mice (5 weeks old, 20 g) by subcutaneous injection. The in-vivo test was performed when the tumor volume was 300 mm^3.
# Control group: n=15, and 0.2 ml of PBS buffer was intravenously injected to the tails;
# Docetaxel group: n=15, Docetaxel was intravenously injected to the tails on the 4th day and 11th day, the dose was 20 mg/(kg·body weight), and the application dose of Docetaxel was the optimal application dose.
# MW-DCG-HNCv-18 spore group: n=15, spores were intravenously injected to the tails, and the dose was 3×10^8/(kg·body weight).
# (§1) MW-DCG-HNCv-18 spore+Cetuximab group: n=15, MW-DCG-HNCv-18 spores were intravenously injected to the tails on the first day, and the dose was 3×10^8/(kg·body weight); Cetuximab was intravenously injected to the tails on the 4th day and 11th day, the dose was 70 mg/(kg·body weight), and the application dose of Cetuximab was the optimal application dose.
# as §1, with “weight); Adriacin” for “weight); Cetuximab”, “was 10” for “was 70”, “of Adriacin” for “of Cetuximab”
# MW-DCG-HNCv-18 spore+Docetaxel group: n=15, MW-DCG-HNCv-18 spores were intravenously injected to the tails on the first day, and the dose was 3×10^8/(kg·body weight); Docetaxel was intravenously injected to the tails on the 4th day and 11th day, and the dose was 20 mg/(kg·body weight).
# C. novyi-NT spore+Docetaxel group: n=15, C. novyi-NT spores were intravenously injected to the tails on the first day, and the dose was 3×10^8/(kg·body weight);
# Docetaxel was intravenously injected to the tails on the 4th day and 11th day, and the dose was 20 mg/(kg·body weight).
# The major diameter (a) and transverse diameter (b) of the transplanted tumors of the nude mice were measured with a vernier caliper, 3 to 4 times a week, the tumor volume of each group was calculated, and the anti-tumor effects of the strains were observed dynamically. At the same time, the body weight, feeding, drinking, mental state, behavior, fur color, excretion and death situations of the tumor-bearing mice were observed and recorded.
# The tumor volume (V=½×a×b^2) was calculated according to the measured major diameter and transverse diameter data of the tumors, the curve was drawn and the tumors were observed dynamically. […]
# The overall survival time of the tumor-bearing mice: the nude mice in each group after processing were fed until natural death, and the survival time was calculated.
# [1] = spores 3×10^8/(kg·body weight) i.v. day 1, drug i.v. 4th and 11th day (Docetaxel 20, Cetuximab 70, Adriacin 10 mg/kg)
smiles,measurement,setting,value
CC(=O)O[C@@]12CO[C@@H]1C[C@H](O)[C@@]1(C)C(=O)[C@H](O)C3=C(C)[C@@H](OC(=O)[C@H](O)[C@@H](NC(=O)OC(C)(C)C)c4ccccc4)C[C@@](O)([C@@H](OC(=O)c4ccccc4)[C@H]21)C3(C)C [Docetaxel],Cure rate,"animals with tumor completely removed/total, spores 3×10^8/kg day 1, drug i.v. 4th and 11th day",0%
same,Necrosis rate,[1],22.2%
same,Tumor inhibition rate,[1],55.9%
same,mean survival days,"spores 3×10^8/kg day 1, drug i.v. 4th and 11th day, fed until natural death",35.5 days
